{"source": "paper PMC7717600", "about": "“Novel [(N-alkyl-3-indolylmethylene)hydrazono]oxindoles arrest cell cycle and induce cell apoptosis by inhibiting CDK2 and Bcl-2: synthesis, biological evaluation and in silico studies” (Journal of Enzyme Inhibition and Medicinal Chemistry, 2020)", "key": {"NCI-H23": {"system": "NCI-H23", "details": "for TGI: NCI-H23"}, "OVCAR-5": {"system": "OVCAR-5", "details": "for TGI: OVCAR-5"}, "OVCAR-8": {"system": "OVCAR-8", "details": "for TGI: OVCAR-8"}, "NCI-H522": {"system": "NCI-H522", "details": "for TGI: NCI-H522"}, "A-549": {"system": "A-549", "assay": "SRB anti-proliferative assay", "format": "cell-based", "details": "Homo sapiens, A549; A-549, SRB, mean ± SE of 3"}, "NCI-H322M": {"system": "NCI-H322M", "assay": "NCI SRB screening"}, "LOX IMVI": {"system": "LOX IMVI", "assay": "NCI SRB screening", "format": "cell-based, human"}, "SF-539": {"system": "SF-539", "details": "for TGI: SF-539"}, "KM12": {"system": "KM12", "details": "for TGI: KM12"}, "MDA-MB-231": {"system": "MDA-MB-231", "assay": "SRB anti-proliferative assay", "format": "cell-based", "details": "Homo sapiens; MDA-MB-231, SRB, mean ± SE of 3"}, "HCT-116": {"system": "HCT-116", "assay": "SRB anti-proliferative assay", "format": "cell-based", "details": "Homo sapiens; HCT-116, SRB, mean ± SE of 3"}, "NCI-H460": {"system": "NCI-H460", "assay": "NCI SRB screening", "format": "cell-based, human"}, "SF-268": {"system": "SF-268", "details": "for TGI: SF-268"}, "TK-10": {"system": "TK-10", "details": "for TGI: TK-10"}, "PC-3": {"system": "PC-3", "assay": "NCI SRB screening", "format": "cell-based, human"}, "UACC-257": {"system": "UACC-257", "details": "for TGI: UACC-257"}, "[1]": {"details": "SK-OV-3, listed as D - 795311 / 1"}}, "note": "Like-named read-outs stand apart in the source and are kept apart here."}
{"smiles": "CCCn1cc(C=NN=C2C(=O)Nc3ccc(C)cc32)c2ccccc21", "note": "[Compound 8a]", "values": [{"measurement": "TGI", "setting": "NCI-H23", "value": 38.2, "unit": "µM"}, {"measurement": "GI %", "setting": "NCI-H23; NCI-H23, 10 μM", "value": 52, "unit": "%"}, {"measurement": "Growth Percent", "setting": "NCI-H23; NCI-H23, 1.00E-5 Molar", "value": 48.03, "unit": "%"}, {"measurement": "TGI", "setting": "NCI-H23; listed as D - 795311 / 1", "value": "3.82E-5", "unit": "Molar"}, {"measurement": "TGI", "setting": "A549/ATCC", "value": 39.6, "unit": "µM"}, {"measurement": "GI %", "setting": "A549/ATCC; 10 μM", "value": 36, "unit": "%"}, {"measurement": "Growth Percent", "setting": "A549/ATCC; 1.00E-5 Molar", "value": 63.93, "unit": "%"}, {"measurement": "TGI", "setting": "A549/ATCC; listed as D - 795311 / 1", "value": "3.96E-5", "unit": "Molar"}, {"measurement": "GI %", "setting": "MDA-MB-231/ATCC; MDA-MB-231, 10 μM", "value": 66, "unit": "%"}, {"measurement": "TGI", "setting": "MDA-MB-231/ATCC; MDA-MB-231/ATCC", "value": 7.40, "unit": "µM"}, {"measurement": "Growth Percent", "setting": "MDA-MB-231/ATCC; MDA-MB-231/ATCC, 1.00E-5 Molar", "value": 34.35, "unit": "%"}, {"measurement": "TGI", "setting": "MDA-MB-231/ATCC; MDA-MB-231/ATCC, listed as D - 795311 / 1", "value": "7.40E-6", "unit": "Molar"}, {"measurement": "TGI", "setting": "CCRF-CEM", "value": ">100", "unit": "µM"}, {"measurement": "GI %", "setting": "CCRF-CEM; 10 μM", "value": 101, "unit": "%"}, {"measurement": "Growth Percent", "setting": "CCRF-CEM; 1.00E-5 Molar", "value": -0.65, "unit": "%"}, {"measurement": "TGI", "setting": "CCRF-CEM; listed as D - 795311 / 1", "value": "> 1.00E-4", "unit": "Molar"}, {"measurement": "TGI", "setting": "ACHN", "value": ">100", "unit": "µM"}, {"measurement": "GI %", "setting": "ACHN; 10 μM", "value": 45, "unit": "%"}, {"measurement": "Growth Percent", "setting": "ACHN; 1.00E-5 Molar", "value": 55.74, "unit": "%"}, {"measurement": "TGI", "setting": "ACHN; listed as D - 795311 / 1", "value": "> 1.00E-4", "unit": "Molar"}, {"measurement": "TGI", "setting": "OVCAR-5", "value": 25.8, "unit": "µM"}, {"measurement": "GI %", "setting": "OVCAR-5; OVCAR-5, 10 μM", "value": 16, "unit": "%"}, {"measurement": "Growth Percent", "setting": "OVCAR-5; OVCAR-5, 1.00E-5 Molar", "value": 84.60, "unit": "%"}, {"measurement": "TGI", "setting": "OVCAR-5; listed as D - 795311 / 1", "value": "2.58E-5", "unit": "Molar"}, {"measurement": "TGI", "setting": "OVCAR-8", "value": ">100", "unit": "µM"}, {"measurement": "GI %", "setting": "OVCAR-8; OVCAR-8, 10 μM", "value": 53, "unit": "%"}, {"measurement": "Growth Percent", "setting": "OVCAR-8; OVCAR-8, 1.00E-5 Molar", "value": 47.49, "unit": "%"}, {"measurement": "TGI", "setting": "OVCAR-8; listed as D - 795311 / 1", "value": "> 1.00E-4", "unit": "Molar"}, {"measurement": "TGI", "setting": "NCI-H522", "value": 6.59, "unit": "µM"}, {"measurement": "GI %", "setting": "NCI-H522; NCI-H522, 10 μM", "value": 86, "unit": "%"}, {"measurement": "Growth Percent", "setting": "NCI-H522; NCI-H522, 1.00E-5 Molar", "value": 13.81, "unit": "%"}, {"measurement": "TGI", "setting": "NCI-H522; listed as D - 795311 / 1", "value": "6.59E-6", "unit": "Molar"}, {"measurement": "IC50", "setting": "A-549", "value": "7.3 ± 0.42", "unit": "µM"}, {"measurement": "TGI", "setting": "NCI-H322M", "value": ">100", "unit": "µM"}, {"measurement": "GI %", "setting": "NCI-H322M; 10 μM", "value": 53, "unit": "%"}, {"measurement": "Growth Percent", "setting": "NCI-H322M; 1.00E-5 Molar", "value": 47.76, "unit": "%"}, {"measurement": "GI50", "setting": "NCI-H322M; Homo sapiens", "value": 3.42, "unit": "µM"}, {"measurement": "CC50", "setting": "NCI-H322M; Homo sapiens, read-out: LC50", "value": "> 100", "unit": "µM"}, {"measurement": "TGI", "setting": "NCI-H322M; listed as D - 795311 / 1", "value": "> 1.00E-4", "unit": "Molar"}, {"measurement": "TGI", "setting": "SK-OV-3; SK-OV-3", "value": 67.10, "unit": "µM"}, {"measurement": "GI %", "setting": "SK-OV-3; SK-OV-3, 10 μM", "value": 12, "unit": "%"}, {"measurement": "Growth Percent", "setting": "SK-OV-3; SK-OV-3, 1.00E-5 Molar", "value": 88.36, "unit": "%"}, {"measurement": "GI50", "setting": "SK-OV-3; [1]", "value": 11.7, "unit": "µM"}, {"measurement": "TGI", "setting": "SK-OV-3; [1]", "value": "6.71E-5", "unit": "Molar"}, {"measurement": "TGI", "setting": "LOX IMVI", "value": 3.06, "unit": "µM"}, {"measurement": "Growth Percent", "setting": "LOX IMVI; 1.00E-5 Molar", "value": 4.42, "unit": "%"}, {"measurement": "GI50", "setting": "LOX IMVI; Homo sapiens", "value": 1.26, "unit": "µM"}, {"measurement": "TGI", "setting": "LOX IMVI; listed as D - 795311 / 1", "value": "3.06E-6", "unit": "Molar"}, {"measurement": "TGI", "setting": "SF-539", "value": 17.1, "unit": "µM"}, {"measurement": "GI %", "setting": "SF-539; SF-539, 10 μM", "value": 66, "unit": "%"}, {"measurement": "Growth Percent", "setting": "SF-539; SF-539, 1.00E-5 Molar", "value": 33.94, "unit": "%"}, {"measurement": "TGI", "setting": "SF-539; listed as D - 795311 / 1", "value": "1.71E-5", "unit": "Molar"}, {"measurement": "TGI", "setting": "KM12", "value": 19.7, "unit": "µM"}, {"measurement": "GI %", "setting": "KM12; KM12, 10 μM", "value": 40, "unit": "%"}, {"measurement": "Growth Percent", "setting": "KM12; KM12, 1.00E-5 Molar", "value": 59.92, "unit": "%"}, {"measurement": "TGI", "setting": "KM12; listed as D - 795311 / 1", "value": "1.97E-5", "unit": "Molar"}, {"measurement": "IC50", "setting": "MDA-MB-231", "value": "4.7 ± 0.28", "unit": "µM"}, {"measurement": "IC50", "setting": "HCT-116", "value": "2.6 ± 0.17", "unit": "µM"}, {"measurement": "GI50", "setting": "NCI-H460; Homo sapiens, NCI-H460", "value": 2.17, "unit": "µM"}, {"measurement": "TGI", "setting": "NCI-H460; NCI-H460", "value": 10.6, "unit": "µM"}, {"measurement": "GI %", "setting": "NCI-H460; NCI-H460, 10 μM", "value": 68, "unit": "%"}, {"measurement": "Growth Percent", "setting": "NCI-H460; NCI-H460, 1.00E-5 Molar", "value": 32.08, "unit": "%"}, {"measurement": "TGI", "setting": "NCI-H460; NCI-H460, listed as D - 795311 / 1", "value": "1.06E-5", "unit": "Molar"}, {"measurement": "TGI", "setting": "SF-268", "value": 28.0, "unit": "µM"}, {"measurement": "GI %", "setting": "SF-268; SF-268, 10 μM", "value": 54, "unit": "%"}, {"measurement": "Growth Percent", "setting": "SF-268; SF-268, 1.00E-5 Molar", "value": 46.59, "unit": "%"}, {"measurement": "TGI", "setting": "SF-268; listed as D - 795311 / 1", "value": "2.80E-5", "unit": "Molar"}, {"measurement": "TGI", "setting": "TK-10", "value": ">100", "unit": "µM"}, {"measurement": "GI %", "setting": "TK-10; TK-10, 10 μM", "value": "– (Only GI % higher than 10% are shown)"}, {"measurement": "Growth Percent", "setting": "TK-10; TK-10, 1.00E-5 Molar", "value": 106.72, "unit": "%"}, {"measurement": "TGI", "setting": "TK-10; listed as D - 795311 / 1", "value": "> 1.00E-4", "unit": "Molar"}, {"measurement": "GI50", "setting": "PC-3; Homo sapiens, PC-3", "value": 1.83, "unit": "µM"}, {"measurement": "TGI", "setting": "PC-3; PC-3", "value": 5.17, "unit": "µM"}, {"measurement": "GI %", "setting": "PC-3; PC-3, 10 μM", "value": 82, "unit": "%"}, {"measurement": "Growth Percent", "setting": "PC-3; PC-3, 1.00E-5 Molar", "value": 17.96, "unit": "%"}, {"measurement": "TGI", "setting": "PC-3; PC-3, listed as D - 795311 / 1", "value": "5.17E-6", "unit": "Molar"}, {"measurement": "TGI", "setting": "EKVX", "value": ">100", "unit": "µM"}, {"measurement": "GI %", "setting": "EKVX; 10 μM", "value": 50, "unit": "%"}, {"measurement": "Growth Percent", "setting": "EKVX; 1.00E-5 Molar", "value": 50.45, "unit": "%"}, {"measurement": "TGI", "setting": "EKVX; listed as D - 795311 / 1", "value": "> 1.00E-4", "unit": "Molar"}, {"measurement": "TGI", "setting": "UACC-257", "value": 66.60, "unit": "µM"}, {"measurement": "GI %", "setting": "UACC-257; UACC-257, 10 μM", "value": 41, "unit": "%"}, {"measurement": "Growth Percent", "setting": "UACC-257; UACC-257, 1.00E-5 Molar", "value": 58.80, "unit": "%"}, {"measurement": "TGI", "setting": "UACC-257; listed as D - 795311 / 1", "value": "6.66E-5", "unit": "Molar"}]}
